Experimental findings from patent US7119182B1 (The Regents of the University of California, priority 1991, dated 2006) are described below.

For orientation: IC50 means the concentration needed to halve the response being measured.

Numbering of substitutions follows the chain as printed. Square brackets hold non-standard residues; d marks the D form. Peptide text beside a SMILES is read from it. * marks the point of attachment. Cha = N[C@@H](CC1CCCCC1)C(=O)O; Piv = CC(C)(C)C(=O)*; Mpa = O=C(O)CCS

One test deals with thrombin (Homo sapiens, UniProt P00734). Description: Inhibition of thrombin-induced platelet activation (ATP secretion) by thrombin inhibitor peptides. The test is classed as cell-based. As for the experimental part: (§1) About 20 μl Chromolume® reagent (Chronolog Corporation, Havertown, Pa.) is added. In addition to measuring aggregation, ATP secretion is assessed. […] Platelet ATP secretion is measured in a lumiaggregometer as luminescence signal. […] Preincubation is not necessary for testing agonists or antagonists which interact directly with the receptor.
Three antagonist peptides of the invention […] (LDPRP peptide) (SEQ ID NO:74), F^†[…] (F^†PRP peptide) (SEQ ID NO:224) and […] (shortened LDPRP peptide) (SEQ ID NO:190), were tested for their ability to inhibit thrombin-induced platelet activation. […] The mixtures were added in a total volume of 20 μl phosphate buffered saline to 480 μl of platelets prepared and suspended as described in the description under the heading “Assays” hereinabove. Various concentrations of the candidate peptides were used.

The target in another test is T1, thrombin receptor (Homo sapiens, UniProt P25116).
T1 construct: In this assay, washed human platelets are prepared by the method of Baenzinger; endogenous in cells; host or cells: washed human platelets
T1 sequence (P25116 22-425): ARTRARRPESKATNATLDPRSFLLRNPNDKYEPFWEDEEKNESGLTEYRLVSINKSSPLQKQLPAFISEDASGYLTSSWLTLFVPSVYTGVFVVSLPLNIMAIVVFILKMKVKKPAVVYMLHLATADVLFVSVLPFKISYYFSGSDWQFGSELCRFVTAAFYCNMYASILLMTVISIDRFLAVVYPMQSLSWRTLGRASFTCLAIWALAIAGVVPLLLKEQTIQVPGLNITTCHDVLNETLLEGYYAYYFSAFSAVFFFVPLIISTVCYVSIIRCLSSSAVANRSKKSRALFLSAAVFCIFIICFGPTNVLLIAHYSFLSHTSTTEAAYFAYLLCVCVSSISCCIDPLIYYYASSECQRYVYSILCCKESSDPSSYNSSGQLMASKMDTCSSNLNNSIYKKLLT
Description: Platelet activation/aggregation assays in the presence of thrombin, antagonist peptides. The note with it: read-out: IC50 (50% inhibition of activation or aggregation). The class given is cell-based. The method, then: Platelet Aggregation: In this assay, washed human platelets are prepared by the method of Baenzinger, M. G., Meth Enzymol (1974) 31:149–155, or as described by Charo, I. F., et al., J Clin Invest (1977) 63:866–873.
Washed platelets are suspended in modified Tyrode's buffer, pH 7.4 with 2 mM magnesium and 1 mM calcium at a concentration of 10^8 platelets/ml.
as §1
Platelet Aggregation Assay Using Microtiter Plates: Thrombin- or agonist-mediated platelet aggregation as measured with washed platelets in 96-well microtiter plates was performed as described (Fratantoni, J. C. et al., Am J Clin Pathol (1990) 94:613–617).

The target in test [1] is T2, wild-type thrombin receptor (Homo sapiens, UniProt P25116, C364S/L238V).
T2 construct: expressed in transfected cells; host or cells: Xenopus laevis oocytes microinjected with cRNA
T2 sequence (P25116 22-425 L238V/C364S): T1 sequence (P25116 22-425) with L217V, C343S
Description: ^45Ca release by oocytes expressing wild-type thrombin receptor cRNA. The test is classed as cell-based. The following applies: control peptide added at 100 μM. As for the experimental part: (§2) Briefly, intracellular calcium pools are labeled by incubating groups of 30 oocytes in 300 μl calcium-free MBSH containing 50 μCi ^45CaCl2 (10–40 mCi/mg Ca; Amersham) for 4 hours at RT. The labeled oocytes are washed, then incubated in MBSH II without antibiotics for 90 minutes. Groups of 5 oocytes are selected and placed in individual wells in a 24-well tissue culture plate (Falcon 3047) containing 0.5 ml/well MBSH II without antibiotics. This medium is removed and replaced with fresh medium every 10 minutes; the harvested medium is analyzed by scintillation counting to determine ^45Ca released by the oocytes during each 10-minute incubation. The 10-minute incubations are continued until a stable baseline of ^45Ca release per unit time is achieved. Two additional 10-minute collections are obtained, then test medium including agonist is added and agonist-induced ^45Ca release determined.
(§3) The control peptide […] (FSLL peptide) (SEQ ID NO:107) was added at 100 μM and elicited no response.

Test [2] has as its target T3, washed human platelets (Homo sapiens, UniProt P25116).
T3 sequence (P25116 42-425): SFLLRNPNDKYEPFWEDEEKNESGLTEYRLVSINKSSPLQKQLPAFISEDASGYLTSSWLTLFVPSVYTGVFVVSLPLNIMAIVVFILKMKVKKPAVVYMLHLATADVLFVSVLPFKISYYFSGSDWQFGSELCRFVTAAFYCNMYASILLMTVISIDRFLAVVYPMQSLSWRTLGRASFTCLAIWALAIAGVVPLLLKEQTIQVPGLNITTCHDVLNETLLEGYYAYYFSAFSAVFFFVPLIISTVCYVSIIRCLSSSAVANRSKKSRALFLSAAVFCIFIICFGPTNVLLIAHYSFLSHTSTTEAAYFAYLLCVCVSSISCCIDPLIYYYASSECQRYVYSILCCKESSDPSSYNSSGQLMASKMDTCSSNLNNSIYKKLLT
The following applies: for Platelet aggregation activity of control peptides: concentrations as high as 200 μM (not shown).

Test [3] has as its target T3, washed human platelets. Kind of test: Platelet ATP secretion in response to agonist peptide. The test is classed as cell-based. The following applies: for Platelet ATP secretion activity of control peptides: concentrations as high as 200 μM (not shown). The method, then:
as §1
Washed human platelets were prepared as described by Baenzinger, N. G., Meth Enz (1974) 31:149–155; and Charo, I. F., et al., J Clin Invest (1977) 63:866–873. Agonist-induced responses were assessed as described above.
Platelet ATP secretion in response to the indicated final concentrations of “new amino-terminal” peptide was also followed by lumiaggregometry, and the results are shown in FIG. 4.
The data shown in FIG. 4 are raw tracings representative of aggregation or secretion responses obtained in triplicate for each agonist concentration, and are representative of results obtained in more than five separate experiments.

The next test has as its system uninjected oocytes. Description: Agonist activity on uninjected oocytes. The test is classed as cell-based, Xenopus laevis. The following applies: uninjected oocytes (not shown). The method, then:
as §2, §3
The agonist SFLL peptide has no activity on uninjected oocytes (not shown). Qualitatively identical results were obtained when agonist-induced inward current in voltage-clamped oocytes was used as an endpoint rather than agonist-induced ^45Ca release.

The next test has as its system CCL-39 cells. Kind of test: Mitogenic effect, tritiated thymidine incorporation in CCL-39 fibroblasts. The test is classed as cell-based, hamster. The following applies: 100 μM, 48 hours, quiescent CCL-39 in serum-free medium; FIG. 5. The method, then:
The fibroblast cell line CCL-39 was made quiescent in serum-free medium and then treated for 48 hours with the candidate agonist in the presence of tritiated thymidine. The incorporation of label into DNA was then determined as TCA-insoluble activity, shown as cpm in FIG. 5 using standard techniques. The data shown in the figure represent the mean of six replicate determinations plus or minus 95% confidence.

The compound `CC(C)C[C@H](NC(=O)[C@H](CC(C)C)NC(=O)[C@H](Cc1ccccc1)NC(=O)[C@@H]1CCCN1C(=O)[C@H](CCCNC(=N)N)NC(=O)[C@@H]1CCCN1C(=O)[C@H](N)Cc1ccccc1)C(=O)N[C@@H](CCCNC(=N)N)C(=O)N[C@@H](CC(N)=O)C(=O)N1CCC[C@H]1C(=O)N[C@@H](CC(N)=O)C(=O)N[C@@H](CC(=O)O)C(=O)N[C@@H](CCCCN)C(=O)N[C@@H](Cc1ccc(O)cc1)C(=O)N[C@@H](CCC(=O)O)C(=O)N1CCC[C@H]1C(=O)N[C@@H](Cc1ccccc1)C(=O)N[C@@H](Cc1c[nH]c2ccccc12)C(=O)N[C@@H](CCC(=O)O)C(=O)N[C@@H](CC(=O)O)C(=O)N[C@@H](CCC(=O)O)C(=O)N[C@@H](CCC(=O)O)C(=O)N[C@@H](CCCCN)C(=O)N[C@@H](CC(N)=O)C(=O)N[C@@H](CCC(=O)O)C(=O)N[C@@H](CO)C(=O)O` [F^†PRP peptide] (H-[dF]PRPFLLRNPNDKYEPFWEDEEKNES-OH) yielded a concentration for half-maximal inhibition (IC50) on thrombin of roughly 0.2 µM.

Turning to `N=C(N)NCCC[C@H](NC(=O)[C@H](CC1CCCCC1)NC(=O)[C@H](CC1CCCCC1)NC(=O)[C@H](Cc1ccccc1)NC(=O)CCS)C(=O)N[C@@H](CC(N)=O)C(=O)N1CCC[C@H]1C(=O)N[C@@H](CC(N)=O)C(=O)N[C@@H](CC(=O)O)C(N)=O` [Mpr-F(Cha) (Cha)RNPND-NH2] ([Mpa]F[Cha][Cha]RNPND-NH2), the IC50 on thrombin receptor turned out to be 50 µM.

Turning to `C[C@H](NC(=O)[C@H](CC(=O)O)NC(=O)[C@H](CC(N)=O)NC(=O)[C@@H]1CCCN1C(=O)[C@H](CC(N)=O)NC(=O)[C@H](CCCNC(=N)N)NC(=O)[C@H](CC1CCCCC1)NC(=O)[C@H](CC1CCCCC1)NC(=O)[C@H](Cc1ccccc1)NC(=O)CCS)C(N)=O` [Mpr-F(Cha) (Cha)RNPNDA-NH2] ([Mpa]F[Cha][Cha]RNPNDA-NH2), the half-inhibitory concentration (IC50) on thrombin receptor was found to be 50 µM.

Turning to `N=C(N)NCCC[C@H](NC(=O)[C@H](CC1CCCCC1)NC(=O)[C@H](CC1CCCCC1)NC(=O)[C@H](Cc1ccccc1)NC(=O)CCS)C(=O)N[C@@H](CC(N)=O)C(=O)N1CCC[C@H]1C(=O)N[C@@H](CC(N)=O)C(=O)N[C@@H](CC(=O)O)C(=O)N[C@@H](CCCCN)C(=O)N[C@@H](Cc1ccc(O)cc1)C(N)=O` [Mpr-F(Cha) (Cha)RNPNDKY-NH2] ([Mpa]F[Cha][Cha]RNPNDKY-NH2), the IC50 on thrombin receptor was 75 µM.

In the case of `N=C(N)NCCC[C@H](NC(=O)[C@H](CC1CCCCC1)NC(=O)[C@H](CC1CCCCC1)NC(=O)[C@H](Cc1ccccc1)NC(=O)CCS)C(=O)N[C@@H](CC(N)=O)C(=O)N1CCC[C@H]1C(=O)N[C@@H](CC(N)=O)C(=O)N[C@@H](CC(=O)O)C(=O)N[C@@H](CCCCN)C(=O)N[C@@H](Cc1ccc(O)cc1)C(=O)O` [Mpr-F(Cha) (Cha)RNPNDKY] ([Mpa]F[Cha][Cha]RNPNDKY-OH), the IC50 on thrombin receptor was determined as 40 µM.

`CC(C)C[C@H](NC(=O)[C@H](CC(C)C)NC(=O)[C@H](Cc1ccccc1)NC(=O)C(C)(C)C)C(=O)N[C@@H](CCCNC(=N)N)C(N)=O` [Pivaloyl-FLLR-NH2] (Piv-FLLR-NH2): the IC50 on thrombin receptor was found to be 1000 µM.

“FSLLRNPNDKYEPF [FSLL peptide, control peptide, agonist with the N-terminus scrambled to FS]”: the “peptide-induced ^45Ca release response” value in test [1] is “no response”. Moreover, the “Platelet aggregation activity of control peptides” value with washed human platelets [2] is recorded as “without activity”. The “Platelet ATP secretion activity of control peptides” value with washed human platelets [3] is given as “without activity”.

Consider “LLRNPNDKYEPF [control peptide, reference compound]”, for which, in the test with washed human platelets [2], the “Platelet aggregation activity of control peptides” value is listed as “without activity”. In the test with washed human platelets [3], the “Platelet ATP secretion activity of control peptides” value is listed as “without activity”.

In the case of SFLLRNPNDKYEPF [“SFLL” peptide], the “agonist activity on uninjected oocytes” value with uninjected oocytes was “no activity”. Besides, the “Platelet aggregation compared with thrombin” value with washed human platelets [2] (peptide at 100 μM, FIG. 4) is “comparably active to 20 μM thrombin”. For the same compound, the “Platelet ATP secretion compared with thrombin” value with washed human platelets [3] (peptide at 100 μM, FIG. 4) is listed as “comparably active to 20 μM thrombin”. For the same compound, the “mitogenic effect (tritiated thymidine incorporation into DNA)” value with CCL-39 cells is listed as “significant stimulation of growth”.
